Assay results published in patent US20040091479A1, “T-cell epitope of the papillomavirus l1 and e7 protein and use thereof in diagnostics and therapy” (priority 2000, published 2004).

Columns and labels:
[1] = test system: peptide-stimulated murine CD8 T cells; test: Restimulating HPV18 peptide-stimulated murine T cells with peptide-presenting RMA cells (example 16); assay type: cell-based; conditions: for reactive CD8-positive T cells (IFNγ, FACScan): RMA cells as antigen-presenting cells, FIG. 15; for T cell epitope assignment: conclusion from FIG. 15
Description: In analogy with example 5, murine T cells derived from CVLP-inoculated mice were stimulated with L1 or E7 peptide pools in the added presence of antigen-presenting cells. The cells were then restimulated with the peptides given on the X axis in FIG. 15 (Q3 and Q4 in the upper part of FIG. 15 and L1474E71-8, E72-11 and E71-8 in the lower part of FIG. 15) and also antigen-presenting cells (RMA). Cells which were only incubated with buffer served as the negative control.
The experiment was also analyzed in analogy with example 5, with the reactive CD8-positive cells being determined by means of antibody staining and FACScan.

[2] = test system: CVLP-stimulated T cells (CD4-positive); test: Restimulating HPV16 CVLP-stimulated T cells with BLCL presenting HPV16 peptide pools (example 7); assay type: cell-based, human; conditions: peptide common to two reactive HPV16 pools; CD4/IFNγ
Source text: (§1) In analogy with example 6, human T cells derived from a non-HLA-typed blood donor were stimulated with HPV16L1ΔC*E71-55 CVLPs and harvested.
The 20mer peptides P1 to 51 were assembled into peptide pools A to H and 1 to 7, respectively, in accordance with the following matrix
The T cells were then restimulated as described in example 6, fixed, permeabilized and stained. The analysis also took place as described in example 6.

[3] = test system: peptide-stimulated murine CD8-positive T cells; test: Restimulating HPV18 peptide-stimulated murine T cells with peptide-presenting LKK cells (IFNγ FACScan); assay type: cell-based, C3H mice; conditions: for proportion of CD8-positive T cells reactive on the basis of IFNγ expression: 1 μg peptide/ml, LKK cells, T cells of HPV18 CVLP-inoculated C3H mice, FIG. 3, 4; for T cell epitope assignment: conclusion from FIG. 3, 4
Description: Murine T cells (4×10^5) derived from C3H mice inoculated with HPV18 L1ΔCDIE71-53DI CVLPs and HPV18 L1ΔCDIE71-6ODI CVLPs were stimulated for 5 weeks with HPV18 L1 or E7 peptide pools at 37° C., with the weekly addition of 1 μg of each individual peptide/ml and 10^5 antigen-presenting cells (irradiated splenocytes), and harvested. The cells were then restimulated, at 37° C. and in 100 μl of medium, with 1 μg of the peptides given on the X axis in FIG. 3/ml and 10^5 antigen-presenting cells (LKK) in the presence of 10 IU of IL2/ml. Cells which were only incubated with buffer served as the negative control.
(§2) 1 μl of monensin (300 μm) was added after an hour. The cells were incubated at 37° C. for a further 5 hours. The cells were then fixed and permeabilized and stained with α-mouse CD8/PE, with α-mouse CD4/cychrome and with α-mouse interferony/FITC. The labeling of the cells was analyzed in a FACScan Calibur and the results of the measurement were analyzed using Cellquest software.

[4] = test system: peptide-stimulated CD8-positive murine T cells; test: Restimulating HPV16 L1 peptide-stimulated murine T cells with peptide-presenting JAWS cells (IFNγ FACScan); assay type: cell-based, C57BL/6 mice; conditions: for proportion of CD8-positive T cells reactive on the basis of IFNγ expression: 1 μg peptide/ml, JAWS cells, T cells of HPV16L1ΔC*E71-55 CVLP-inoculated C57BL/6 mice, FIG. 1; for T cell epitope assignment: conclusion from FIG. 1
Description: Murine T cells (4×10^5) derived from HPV16L1ΔC*E71-55 CVLP-inoculated C57BL/6 mice were stimulated for 5 weeks with HPV16 L1 peptide pools at 37° C., with the weekly addition of 1 μg of each individual peptide/ml and 10^5 antigen-presenting cells (irradiated splenocytes), and harvested. The cells were subsequently restimulated, in 100 μl of medium at 37° C., with 1 μg of the peptides given on the X axis in FIG. 1/ml and 10^5 antigen-presenting cells (JAWS) in the presence of 10 IU of IL2/ml. Cells which were only incubated with buffer serve as the negative control.
as §2, with “After an hour, 1” for “1”, “μM)” for “μm)”, “added.” for “added after an hour.”, “interferon γ/FITC.” for “interferony/FITC.”, “caliber” for “Calibur”, “measurements” for “measurement”

[5] = test system: HPV18 CVLP-stimulated human T cells; test: Restimulating HPV18 CVLP-stimulated T cells with BLCL presenting Q38, Q39, Q46 or Q47 (example 13); assay type: cell-based; conditions: conclusion from FIG. 12 top right
Description: In analogy with example 6, human T cells (4×10^5) derived from a non-HLA-typed blood donor were stimulated with HPV18L1ΔCDIE71-53DI CVLPs and HPV18L1ΔCDIE71-60DI CVLPs and harvested.
The T cells were then restimulated, at 37° C. and in 100 μl of medium, with in each case 1 μg of peptide Q38, Q39, Q46 or Q47/ml and 10^5 antigen-presenting cells (donor-identical BLCL) in the presence of 10 IU of IL2/ml. Cells which were only incubated with buffer served as the negative control while cells which were incubated with the HPV18 L1 peptide pool or the E7 peptide pool served as positive controls.
(§3) 1 μl of monensin was added after an hour. The cells were then incubated at 37° C. for a further 5 hours. After that, the cells were fixed and permeabilized and stained with α-human CD8/APC, with α-human CD4/PerCP and with α-human IFNγ/FITC. The labeling of the cells was examined in a FACScan Calibur and the results of the measurements were analyzed using Cellquest software.

[6] = test system: CVLP-stimulated CD8-positive T cells; test: Restimulating HPV16 CVLP-stimulated T cells with BLCL presenting HPV16 peptide pools (example 14); assay type: cell-based, human; conditions: peptide common to two reactive HPV16 pools; CD8/IFNγ
Description: as §1
The T cells were then restimulated, at 37° C. and in 100 μl of medium, with the peptide pools from example 7 and 10^5 antigen-presenting cells (donor-identical BLCL) in the presence of 10 IU of IL2/ml. Use was made, in this connection, of quantities of the peptide pools which were such that 1 μg/ml was added in the case of each individual peptide. Cells which were only incubated with buffer served as the negative control, while cells which were incubated with the HPV16 L1 or E7 peptide pool served as positive controls.
as §3

Compound: MHGPKATL [E71-8, HPV18 E7 1-8]
- reactive CD8-positive T cells (IFNγ, FACScan) [1]: brought about a restimulation
- T cell epitope assignment [1]: contain an H2b-restricted cytotoxic T cell epitope

Compound: WACVGVEVGRGQPLGVGISG [P10, HPV16 L1 100-119]
- T cell epitope assignment [2]: contain a T helper epitope

Compound: SSADDLRAFQQLFLNTLSFV [Q51, HPV18 E7 78-97]
- proportion of CD8-positive T cells reactive on the basis of IFNγ expression [3]: brought about a restimulation
- T cell epitope assignment [3]: contain H2k-restricted cytotoxic T cell epitopes

Compound: QPLGVGISGHPLLNKLDDTE [P11, HPV16 L1 111-130]
- T cell epitope assignment [2]: contain a T helper epitope

Compound: DMVDTGFGAMDFTTLQANKS [P19, HPV16 L1 199-218]
- proportion of CD8-positive T cells reactive on the basis of IFNγ expression [4]: brought about a restimulation
- T cell epitope assignment [4]: contain H2b-restricted cytotoxic T cell epitopes
- T cell epitope assignment [2]: contain a T helper epitope

Compound: CC[C@H](C)[C@H](NC(=O)[C@H](C)NC(=O)[C@@H](NC(=O)[C@H](CO)NC(=O)[C@H](CCC(N)=O)NC(=O)[C@@H](NC(=O)[C@H](Cc1ccccc1)NC(=O)[C@H](CCCNC(=N)N)NC(=O)[C@H](Cc1ccc(O)cc1)NC(=O)[C@@H](NC(=O)[C@H](CC(=O)O)NC(=O)[C@@H](NC(=O)[C@H](CC(C)C)NC(=O)[C@H](CO)NC(=O)[C@@H](NC(=O)[C@@H](NC(=O)[C@@H]1CCCN1C(=O)[C@@H]1CCCN1C(=O)[C@@H]1CCCN1C(=O)[C@@H]1CCCN1)[C@@H](C)O)[C@@H](C)O)C(C)C)[C@@H](C)O)C(C)C)C(C)C)C(=O)O [Q38]
- T cell epitope assignment (cytotoxic) [5]: contain cytotoxic T cell epitopes

Compound: GMHGPKATL [L1474E71-8, HPV18 L1 474 and E7 1-8]
- reactive CD8-positive T cells (IFNγ, FACScan) [1]: brought about a restimulation
- T cell epitope assignment [1]: contain an H2b-restricted cytotoxic T cell epitope

Compound: QLCLIGCKPPIGEHWGKGSP [P15, HPV16 L1 155-174]
- T cell epitope assignment [2]: contain a T helper epitope

Compound: VTVVDTTRSTNNSLCAAIST [P31, HPV16 L1 331-350]
- T cell epitope assignment [2]: contain a T helper epitope

Compound: MLDLQPETTDLYCYEQLNDS [P45, HPV16 E7 12-31]
- T cell epitope assignment [6]: contain a cytotoxic T cell epitope

Compound: IFQLCKITLTADVMTYIHSM [P35, HPV16 L1 375-394]
- proportion of CD8-positive T cells reactive on the basis of IFNγ expression [4]: brought about a restimulation
- T cell epitope assignment [4]: contain H2b-restricted cytotoxic T cell epitopes

Compound: STDEYVARTNIYYHAGTSRL [P3, HPV16 L1 23-42]
- proportion of CD8-positive T cells reactive on the basis of IFNγ expression [4]: brought about a restimulation
- T cell epitope assignment [4]: contain H2b-restricted cytotoxic T cell epitopes
- T cell epitope assignment [6]: contain a cytotoxic T cell epitope

Compound: CC[C@H](C)[C@H](NC(=O)[C@H](C)NC(=O)[C@@H](NC(=O)[C@H](CO)NC(=O)[C@H](CCC(N)=O)NC(=O)[C@@H](NC(=O)[C@H](Cc1ccccc1)NC(=O)[C@H](CCCNC(=N)N)NC(=O)[C@@H](N)Cc1ccc(O)cc1)C(C)C)C(C)C)C(=O)N[C@H](C(=O)N[C@@H](CS)C(=O)N[C@@H](CCC(N)=O)C(=O)N[C@@H](CCCCN)C(=O)N[C@@H](CC(=O)O)C(=O)N[C@@H](C)C(=O)N[C@@H](C)C(=O)N1CCC[C@H]1C(=O)N[C@@H](C)C(=O)N[C@@H](CCC(=O)O)C(=O)N[C@@H](CC(N)=O)C(=O)O)[C@@H](C)O [Q39]
- T cell epitope assignment (cytotoxic) [5]: contain cytotoxic T cell epitopes

Compound: NNNKILVPKVSGLQYRVFRI [P6, HPV16 L1 56-75]
- T cell epitope assignment [6]: contain a cytotoxic T cell epitope

Compound: FYHAGSSRLLTVGNPYFRVP [Q4, HPV18 L1 34-53]
- reactive CD8-positive T cells (IFNγ, FACScan) [1]: brought about a restimulation
- T cell epitope assignment [1]: contain an H2b-restricted cytotoxic T cell epitope

Compound: PLGRKFLLQAGMHGDTPTLH [P43, HPV16 L1 463-473 and E7 1-9]
- proportion of CD8-positive T cells reactive on the basis of IFNγ expression [4]: brought about a restimulation
- T cell epitope assignment [4]: contain H2b-restricted cytotoxic T cell epitopes
- T cell epitope assignment [6]: contain a cytotoxic T cell epitope

Compound: NTDDYVTRTSIFYHAGSSRL [Q3, HPV18 L1 23-42]
- reactive CD8-positive T cells (IFNγ, FACScan) [1]: brought about a restimulation
- T cell epitope assignment [1]: contain an H2b-restricted cytotoxic T cell epitope

Compound: VGNPYFRVPAGGGNKQDIPK [Q5, HPV18 L1 45-64]
- proportion of CD8-positive T cells reactive on the basis of IFNγ expression [3]: brought about a restimulation
- T cell epitope assignment [3]: contain H2k-restricted cytotoxic T cell epitopes

Compound: GDSMFFCLRREQLFARHFWN [Q23, HPV18 L1 243-262]
- proportion of CD8-positive T cells reactive on the basis of IFNγ expression [3]: brought about a restimulation
- T cell epitope assignment [3]: contain H2k-restricted cytotoxic T cell epitopes

Compound: PDYLQMSADPYGDSMFFCLR [Q22, HPV18 L1 232-251]
- proportion of CD8-positive T cells reactive on the basis of IFNγ expression [3]: brought about a restimulation
- T cell epitope assignment [3]: contain H2k-restricted cytotoxic T cell epitopes

Compound: LKKYTFWEVNLKEKFSADLD [P41, HPV16 L1 441-460]
- T cell epitope assignment [6]: contain a cytotoxic T cell epitope

Compound: YIKGSGSTANLASSNYFPTP [P26, HPV16 L1 276-295]
- T cell epitope assignment [2]: contain a T helper epitope

Compound: LELINTVIQDGDMVDTGFGA [P18, HPV16 L1 188-207]
- proportion of CD8-positive T cells reactive on the basis of IFNγ expression [4]: brought about a restimulation
- T cell epitope assignment [4]: contain H2b-restricted cytotoxic T cell epitopes
- T cell epitope assignment [2]: contain a T helper epitope

Compound: GDSLFFYLRREQMFVRHLFN [P23, HPV16 L1 243-262]
- T cell epitope assignment [2]: contain a T helper epitope

Compound: MSLWLPSEATVYLPPVPVSK [P1, HPV16 L1 1-20]
- T cell epitope assignment [6]: contain a cytotoxic T cell epitope

Compound: ASSNYFPTPSGSMVTSDAQI [P27, HPV16 L1 287-306]
- T cell epitope assignment [2]: contain a T helper epitope

Compound: YCYEQLNDSSEEEDEIDGPA [P46, HPV16 E7 23-42]
- T cell epitope assignment [6]: contain a cytotoxic T cell epitope

Compound: HGPKATLQDI [E72-11, HPV18 E7 2-11]
- reactive CD8-positive T cells (IFNγ, FACScan) [1]: brought about a restimulation
- T cell epitope assignment [1]: contain an H2b-restricted cytotoxic T cell epitope
